Measurements taken from patent US5356880A, “Glycyrrhetinic acid derivatives” (priority 1991, dated 1994).
Like-named read-outs stand apart in the source and are kept apart here.

Experiments:
HSV-1 (Miyama strain) = assay: In vitro antiviral action on cells infected with HSV-1 (Miyama strain), CPE inhibition, TCID50; type: cell-based, Herpes simplex virus type 1; details: Human alphaherpesvirus 1, GMK cells, read-out: Antiviral Activity (ΔTCID50)
HSV-1 (KOS strain) = assay: microbe, parasite or virus in culture; type: cell-based, Herpes simplex virus type 1; details: Human alphaherpesvirus 1, Vero, read-out: Antiviral Activity (ΔTCID50)
HSV-2 (UW-268 strain) = assay: microbe, parasite or virus in culture; type: cell-based, Herpes simplex virus type 2; details: Human alphaherpesvirus 2, Vero, read-out: Antiviral Activity (ΔTCID50)
[1] = tested on: vaccinia viruses (D1E strain); assay: microbe, parasite or virus in culture; type: cell-based; details: Orthopoxvirus vaccinia, Vero, read-out: Antiviral Activity (ΔTCID50)
[2] = tested on: influenza viruses (A/PR/8 strain); assay: microbe, parasite or virus in culture; type: cell-based, influenza virus A/PR/8; details: unidentified influenza virus, PR/8, MDCK, read-out: Antiviral Activity (ΔTCID50)
[3] = Acute toxicity testing, oral, mice (LD50, Litchfield-Willcoxon); details: mouse, in vivo, ICR male mice, 7 days observation
Excerpt: The compounds to be tested in the form of a 2% aqueous solution of Tween 80 were orally administrated to ICR male mice (weights: 24-30 g), five for each group.

influenza viruses = details: in vivo; cited from earlier work

Q: For COc1ccccc1N1CCN(C(=O)[C@@]2(C)CC[C@]3(C)CC[C@]4(C)C(=CC[C@@H]5[C@@]6(C)CC[C@H](O[C@H]7O[C@H](C(=O)O)[C@@H](O)[C@H](O)[C@H]7O[C@@H]7O[C@H](C(=O)O)[C@@H](O)[C@H](O)[C@H]7O)C(C)(C)[C@@H]6CC[C@]54C)[C@@H]3C2)CC1 [Comp. Ex. 37, 30-(N-2-(4-(2-methoxylphenyl)piperazine-1-yl)carbonyl)-18β-olean-12-en-3β-yl-2-O-β-D-glucuronyl-α-D-gluconic acid], which log reduction at 1 µg/mL (HSV-1 (Miyama strain); 1 μg/ml) is on record?
A: 1.94

Q: What about the log reduction at 5 µg/mL (HSV-1 (Miyama strain); 5 μg/ml) of the same compound?
A: > 3.17

Q: And the log reduction at 25 µg/mL (HSV-1 (Miyama strain); 25 μg/ml)?
A: > 3.73

Q: And the log reduction at 1 µg/mL (HSV-1 (KOS strain))?
A: 2.74

Q: And the log reduction at 5 µg/mL (HSV-1 (KOS strain))?
A: 2.65

Q: And the log reduction at 25 µg/mL (HSV-1 (KOS strain))?
A: > 3.25

Q: What about the log reduction at 1 µg/mL (HSV-2 (UW-268 strain)) of the same compound?
A: 1.87

Q: What about the log reduction at 5 µg/mL (HSV-2 (UW-268 strain)) of the same compound?
A: 3.01

Q: What about the log reduction at 25 µg/mL (HSV-2 (UW-268 strain)) of the same compound?
A: > 3.85

Q: What about the log reduction at 1 µg/mL [1] of the same compound?
A: 1.49

Q: What about the log reduction at 5 µg/mL [1] of the same compound?
A: 2.85

Q: What about the log reduction at 25 µg/mL [1] of the same compound?
A: 2.61

Q: And the log reduction at 1 µg/mL [2]?
A: 1.64

Q: And the log reduction at 5 µg/mL [2]?
A: 1.7

Q: And the log reduction at 25 µg/mL [2]?
A: 2.38

Q: What about the LD50 at 168 h [3] of the same compound?
A: > 1000 mg/kg

Q: What about the magnitude of cytotoxicity (GMK cells; 1 μg/ml) of the same compound?
A: -

Q: What about the magnitude of cytotoxicity (GMK cells; 5 μg/ml) of the same compound?
A: -

Q: And the magnitude of cytotoxicity (GMK cells; 25 μg/ml)?
A: -

Q: And the magnitude of cytotoxicity (Vero cells)?
A: -

Q: For N#CNc1nncs1 [LY253963], which “effect on influenza viruses in animal tests” value (influenza viruses) is on record?
A: resistant to influenza viruses in animal tests
